This passage reports EC50 results from US9499550B2 (BRISTOL-MYERS SQUIBB COMPANY, priority 2012, dated 2016).

pEC50: −log10 of the molar value. Like-named read-outs stand apart in the source and are kept apart here. A value given as a limit tells only on which side of the number the result lay.

The subject of assay [1] is HCV genotype 1a (H77 strain) replicon in HUH-7 cells. The experiment in a line: HCV replicon luciferase reporter assay, genotype 1a. As to conditions: Hepatitis C virus, Huh-7, 72 h, HCV genotype 1a replicon luciferase, 3 days incubation. Format: cell-based. In a few lines: (§1)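 Replicon inhibition for both genotypes was measured as Renilla luciferase signal (EnduRen, 7.5 μM final, 2 h) after 3-day, 37° C exposure of replicon-bearing HUH-7 cells in 4% FCS DMEM, 0.5% DMSO. The 1b construct carries S1179I; the 1a H77 construct carries P1496L and S2204I. Twenty-point, 3-fold dilutions were fitted four-parametrically for EC50, and CC50 was taken from multiplexed Cell Titer-Blue.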

Assay [2] deals with HCV genotype 1b (Con1) replicon in HUH-7 cells. The experiment in a line: HCV replicon luciferase reporter assay, genotype 1b. Format: cell-based. The following applies: Hepatitis C virus, Huh-7, 72 h, HCV genotype 1b replicon luciferase, 3 days incubation. In short, it runs like this: as §1
(In general: A replicon is a self-replicating genome or part of one, used to study replication in cells.)

Setting [3] is: GETYPE1A, read-out: LE_1a (EC50, range).
The mark [4] stands for this setting: GETYPE1B, read-out: LE_1b (EC50, range).

The pEC50 is −log10 of the EC50, conventionally taken in molar units. Regarding `COc1ccc2nc(O[C@@H]3C[C@H]4C(=O)N[C@]5(C(=O)NS(=O)(=O)C6(C)CC6)C[C@H]5/C=C\CC[C@@H](C)C[C@@H](C)[C@H](NC(=O)OC(C)(C)C(F)(F)F)C(=O)N4C3)c(-c3ccc(OC(C)C)cc3)nc2c1` [Compound 4261], the negative logarithm of the EC50 (pEC50) in assay [1] (setting [3]) was 7.46 to 8.30; in assay [2] (setting [4]) it was 8.30 to 9.00.

Consider `CC[C@@H]1C[C@H](C)CC/C=C\[C@@H]2C[C@@]2(C(=O)NS(=O)(=O)C2CC2)NC(=O)[C@@H]2C[C@@H](Oc3nc4cc(OC)ccc4nc3O)CN2C(=O)[C@H]1NC(=O)OC(C)(C)C` [Compound 4262], for which the pEC50 is 6.21 to 7.46 in assay [1] (read-out: LE_1a (EC50, range)) and 6.21 to 7.46 in assay [2] (read-out: LE_1b (EC50, range)).

In the case of `CC[C@@H]1C[C@H](C)CC/C=C\[C@@H]2C[C@@]2(C(=O)NS(=O)(=O)C2CC2)NC(=O)[C@@H]2C[C@@H](Oc3nc4cc(OC)ccc4nc3C(F)(F)F)CN2C(=O)[C@H]1NC(=O)OC(C)(C)C(F)(F)F` [Compound 4263], the values for the pEC50 in assay [1] (setting [3]) and in assay [2] (setting [4]) were 8.30 to 9.00 and 9.00 to 9.29, respectively.

`CC[C@@H]1C[C@H](C)CC/C=C\[C@@H]2C[C@@]2(C(=O)NS(=O)(=O)C2CC2)NC(=O)[C@@H]2C[C@@H](Oc3nc4cc(OC)c(F)cc4nc3O)CN2C(=O)[C@H]1NC(=O)OC(C)(C)C` [Compound 4265, tert-butyl ((2R,6S,7R,9R,13aS,14aR,16aS,Z)-14a-((cyclopropylsulfonyl)carbamoyl)-7-ethyl-2-((6-fluoro-3-hydroxy-7-methoxyquinoxalin-2-yl)oxy)-9-methyl-5,16-dioxo-1,2,3,5,6,7,8,9,10,11,13a,14,14a,15,16,16a-hexadecahydrocyclopropa[e]pyrrolo[1,2-a][1,4]diazacyclopentadecin-6-yl)carbamate]: the pEC50 in assay [1] (read-out: LE_1a (EC50)) was 6.21; in assay [1] (read-out: LE_1a (EC50, range)), 6.21 to 7.46; in assay [2] (read-out: LE_1b (EC50)), 6.32; in assay [2] (read-out: LE_1b (EC50, range)), 6.21 to 7.46.

Turning to `CC[C@@H]1C[C@H](C)CC/C=C\[C@@H]2C[C@@]2(C(=O)NS(=O)(=O)C2CC2)NC(=O)[C@@H]2C[C@@H](Oc3nc4cc(OC)c(F)cc4nc3C(F)(F)F)CN2C(=O)[C@H]1NC(=O)OC(C)(C)C` [Compound 4266, tert-butyl ((2R,6S,7R,9R,13aS,14aR,16aS,Z)-14a-((cyclopropylsulfonyl)carbamoyl)-7-ethyl-2-((6-fluoro-7-methoxy-3-(trifluoromethyl)quinoxalin-2-yl)oxy)-9-methyl-5,16-dioxo-1,2,3,5,6,7,8,9,10,11,13a,14,14a,15,16,16a-hexadecahydrocyclopropa[e]pyrrolo[1,2-a][1,4]diazacyclopentadecin-6-yl)carbamate], the negative-log EC50 (pEC50) in assay [1] (read-out: LE_1a (EC50, range)) was 8.30 to 9.00; in assay [2] (read-out: LE_1b (EC50, range)) it was 8.30 to 9.00.

As for `CC[C@@H]1C[C@H](C)CC/C=C\[C@@H]2C[C@@]2(C(=O)NS(=O)(=O)C2CC2)NC(=O)[C@@H]2C[C@@H](Oc3nc4cc(OC)c(F)cc4nc3C(F)(F)F)CN2C(=O)[C@H]1NC(=O)OC(C)(C)C(F)(F)F` [Compound 4267], the pEC50 in assay [1] (setting [3]) is 7.46 to 8.30; in assay [2] (setting [4]), 8.30 to 9.00.

In the case of `CC[C@@H]1C[C@H](C)CC/C=C\[C@@H]2C[C@@]2(C(=O)NS(=O)(=O)C2(C)CC2)NC(=O)[C@@H]2C[C@@H](Oc3nc4cc(OC)c(F)cc4nc3C(F)(F)F)CN2C(=O)[C@H]1NC(=O)OC(C)(C)C(F)(F)F` [Compound 4268], the negative-log EC50 (pEC50) in assay [1] (setting [3]) and in assay [2] (setting [4]) was 8.30 to 9.00 each time.

For the molecule `CC[C@@H]1C[C@H](C)CC/C=C\[C@@H]2C[C@@]2(C(=O)NS(=O)(=O)C2(C)CC2)NC(=O)[C@@H]2C[C@@H](Oc3ncc(N(CC)CC)c4cc(OC)ccc34)CN2C(=O)[C@H]1NC(=O)OC(C)(C)C(F)(F)F` [Compound 4269], the pEC50 in assay [1] (setting [3]) and in assay [2] (setting [4]) was 8.30 to 9.00 throughout.

In the case of `CC[C@@H]1C[C@H](C)CC/C=C\[C@@H]2C[C@@]2(C(=O)NS(=O)(=O)C2CC2)NC(=O)[C@@H]2C[C@@H](Oc3nc4cc(OC)ccc4nc3Cl)CN2C(=O)[C@H]1NC(=O)OC(C)(C)C` [Compound 4270, tert-butyl ((2R,6S,7R,9R,13aS,14aR,16aS,Z)-2-((3-chloro-7-methoxyquinoxalin-2-yl)oxy)-14a-((cyclopropylsulfonyl)carbamoyl)-7-ethyl-9-methyl-5,16-dioxo-1,2,3,5,6,7,8,9,10,11,13a,14,14a,15,16,16a-hexadecahydrocyclopropa[e]pyrrolo[1,2-a][1,4]diazacyclopentadecin-6-yl)carbamate], the pEC50 is 8.30 to 9.00 in assay [1] (read-out: LE_1a (EC50, range)) and 9.30 to 10.00 in assay [2] (read-out: LE_1b (EC50, range)).

Consider `CC[C@@H]1C[C@H](C)CC/C=C\[C@@H]2C[C@@]2(C(=O)NS(=O)(=O)C2CC2)NC(=O)[C@@H]2C[C@@H](Oc3nc4cc(OC)ccc4nc3Cl)CN2C(=O)[C@H]1NC(=O)OC(C)(C)C(F)(F)F` [Compound 4271], for which the pEC50 is 8.30 to 9.00 in assay [1] (setting [3]) and 9.30 to 10.00 in assay [2] (setting [4]).

With `CC[C@@H]1C[C@H](C)CC/C=C\[C@@H]2C[C@@]2(C(=O)NS(=O)(=O)C2CC2)NC(=O)[C@@H]2C[C@@H](Oc3nc4cc(OC)ccc4nc3C(C)C)CN2C(=O)[C@H]1NC(=O)OC(C)(C)C` [Compound 4272, tert-butyl ((2R,6S,7R,9R,13aS,14aR,16aS,Z)-14a-((cyclopropylsulfonyl)carbamoyl)-7-ethyl-2-((3-isopropyl-7-methoxyquinoxalin-2-yl)oxy)-9-methyl-5,16-dioxo-1,2,3,5,6,7,8,9,10,11,13a,14,14a,15,16,16a-hexadecahydrocyclopropa[e]pyrrolo[1,2-a][1,4]diazacyclopentadecin-6-yl)carbamate], the pEC50 is 7.46 to 8.30 in assay [1] (read-out: LE_1a (EC50, range)) and 8.30 to 9.00 in assay [2] (read-out: LE_1b (EC50, range)).

As to `CC[C@@H]1C[C@H](C)CC/C=C\[C@@H]2C[C@@]2(C(=O)NS(=O)(=O)C2CC2)NC(=O)[C@@H]2C[C@@H](Oc3nc4cc(OC)ccc4nc3C(C)C)CN2C(=O)[C@H]1NC(=O)OC(C)(C)C(F)(F)F` [Compound 4273], the pEC50 in assay [1] (setting [3]) was 7.46 to 8.30; in assay [2] (setting [4]), 8.30 to 9.00.

`CC[C@@H]1C[C@H](C)CC/C=C\[C@@H]2C[C@@]2(C(=O)NS(=O)(=O)C2(C)CC2)NC(=O)[C@@H]2C[C@@H](Oc3ncc(C(=O)O)c4cc(OC)ccc34)CN2C(=O)[C@H]1NC(=O)OC(C)(C)C(F)(F)F` [Compound 4276, 1-(((2R,6S,7R,9R,13aS,14aR,16aS,Z)-7-ethyl-9-methyl-14a-(((1-methylcyclopropyl)sulfonyl)carbamoyl)-5,16-dioxo-6-((((1,1,1-trifluoro-2-methylpropan-2-yl)oxy)carbonyl)amino)-1,2,3,5,6,7,8,9,10,11,13a,14,14a,15,16,16a-hexadecahydrocyclopropa[e]pyrrolo[1,2-a][1,4]diazacyclopentadecin-2-yl)oxy)-6-methoxyisoquinoline-4-carboxylic acid]: the negative logarithm of the EC50 (pEC50) is 6.21 to 7.46 in assay [1] (read-out: LE_1a (EC50, range)) and 6.21 to 7.46 in assay [2] (read-out: LE_1b (EC50, range)).

On to `CC[C@@H]1C[C@H](C)CC/C=C\[C@@H]2C[C@@]2(C(=O)NS(=O)(=O)C2(C)CC2)NC(=O)[C@@H]2C[C@@H](Oc3ncc(C(=O)O)c4cc(OC)ccc34)CN2C(=O)[C@H]1NC(=O)OC(C)(C)C` [Compound 4277, 1-(((2R,6S,7R,9R,13aS,14aR,16aS,Z)-6-((tert-butoxycarbonyl)amino)-7-ethyl-9-methyl-14a-(((1-methylcyclopropyl)sulfonyl)carbamoyl)-5,16-dioxo-1,2,3,5,6,7,8,9,10,11,13a,14,14a,15,16,16a-hexadecahydrocyclopropa[e]pyrrolo[1,2-a][1,4]diazacyclopentadecin-2-yl)oxy)-6-methoxyisoquinoline-4-carboxylic acid], for which the negative-log EC50 (pEC50) was at most 6.00 in assay [1] (read-out: LE_1a (EC50)); 6.21 to 7.46 in assay [1] (read-out: LE_1a (EC50, range)); 6.66 in assay [2] (read-out: LE_1b (EC50)); 6.21 to 7.46 in assay [2] (read-out: LE_1b (EC50, range)).

On to `CC[C@@H]1C[C@H](C)CC/C=C\[C@@H]2C[C@@]2(C(=O)NS(=O)(=O)C2CC2)NC(=O)[C@@H]2C[C@@H](Oc3ncc(C(=O)O)c4cc(OC)ccc34)CN2C(=O)[C@H]1NC(=O)OC(C)(C)C` [Compound 4278, 1-(((2R,6S,7R,9R,13aS,14aR,16aS,Z)-6-((tert-butoxycarbonyl)amino)-14a-((cyclopropylsulfonyl)carbamoyl)-7-ethyl-9-methyl-5,16-dioxo-1,2,3,5,6,7,8,9,10,11,13a,14,14a,15,16,16a-hexadecahydrocyclopropa[e]pyrrolo[1,2-a][1,4]diazacyclopentadecin-2-yl)oxy)-6-methoxyisoquinoline-4-carboxylic acid], for which the negative-log EC50 (pEC50) was 6.21 to 7.46 in assay [1] (read-out: LE_1a (EC50, range)) and 6.21 to 7.46 in assay [2] (read-out: LE_1b (EC50, range)).

`CC[C@@H]1C[C@H](C)CC/C=C\[C@@H]2C[C@@]2(C(=O)NS(=O)(=O)C2CC2)NC(=O)[C@@H]2C[C@@H](Oc3ncc(C(=O)O)c4cc(OC)ccc34)CN2C(=O)[C@H]1NC(=O)OC(C)(C)C(F)(F)F` [Compound 4279, 1-(((2R,6S,7R,9R,13aS,14aR,16aS,Z)-14a-((cyclopropylsulfonyl)carbamoyl)-7-ethyl-9-methyl-5,16-dioxo-6-((((1,1,1-trifluoro-2-methylpropan-2-yl)oxy)carbonyl)amino)-1,2,3,5,6,7,8,9,10,11,13a,14,14a,15,16,16a-hexadecahydrocyclopropa[e]pyrrolo[1,2-1,2-a][1,4]diazacyclopentadecin-2-yl)oxy)-6-methoxyisoquinoline-4-carboxylic acid]: the pEC50 in assay [1] (read-out: LE_1a (EC50, range)) is 6.21 to 7.46; in assay [2] (read-out: LE_1b (EC50, range)), 6.21 to 7.46.
